Legend:
B. subtilis 168 [1] = experiment: fitness (endpoint OD595 vs no drug) (fraction); higher = more growth
How it was run: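 At 37 °C, bacteria in TSB, LB Lennox or CY were grown in 384-well plates from a starting OD595 of 0.01. OD595 was measured every 30 min for 14 h, with the first reading used as background. Fitness is the optical density at the switch to stationary phase as a fraction of the robust mean of no-drug control wells, capped at 1.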

B. subtilis 168 [2] = experiment: Bliss interaction score (quartile over a dose matrix) (fitness difference); higher = more antagonism (negative = synergy)
How it was run: (§1)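 The Bliss score was calculated by subtracting the expected fitness, the product of single-drug values, from the observed fitness. OD595 at entry into stationary phase, over the plate's robust no-drug mean and capped at 1, served as the fitness readout. Single-drug values were inferred from combination data, and scores are summarised by quartiles across technical, biological and donor/recipient replicates.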

S. aureus DSM 20231 = experiment: as above
How it was run: as §1

S. aureus Newman = experiment: as above
How it was run: as §1

S. pneumoniae D39V = experiment: as above
How it was run: as §1
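For Bliss interaction score (quartile over a dose matrix) in this document: first quartile when negative (synergy) and third quartile when positive (antagonism).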

CO/N=C(\C(=O)N[C@@H]1C(=O)N2C(C(=O)O)=C(COC(C)=O)CS[C@H]12)c1csc(N)n1 [Cefotaxime] + CO[C@@H]1[C@@H](OC(N)=O)[C@@H](O)[C@H](Oc2ccc3c(O)c(NC(=O)c4ccc(O)c(CC=C(C)C)c4)c(=O)oc3c2C)OC1(C)C [Novobiocin]
fitness, B. subtilis 168 [1], one replicate
Settings | first compound 0.00775 µg/mL | first compound 0.0155 µg/mL | first compound 0.031 µg/mL | first compound 0.0625 µg/mL | first compound 0.125 µg/mL | first compound 0.25 µg/mL
partner 0.05 µg/mL | 0.908 | 0.735 | 0.565 | – | – | –
partner 0.1 µg/mL | 0.955 | 0.715 | 0.563 | – | – | –
partner 0.125 µg/mL | – | – | – | 0.291 | 0.169 | 0.117
partner 0.2 µg/mL | 0.945 | 0.676 | 0.51 | – | – | –
partner 0.25 µg/mL | – | – | – | 0.112 | 0.0673 | 0.0477
partner 0.5 µg/mL | – | – | – | 0.0592 | 0.0517 | 0.0477

fitness, B. subtilis 168 [1]
Settings | first compound 0.5 µg/mL | first compound 1 µg/mL | first compound 2 µg/mL
partner 0.0125 µg/mL | 0.27 | 0.122 | 0.127
partner 0.025 µg/mL | 0.275 | 0.135 | 0.131
partner 0.05 µg/mL | 0.276 | 0.153 | 0.142

Settings | Bliss interaction score
B. subtilis 168 [2] | 0.097
S. aureus DSM 20231 | 0.0739
S. aureus Newman | 0.0646
S. pneumoniae D39V | -0.126

CO/N=C(\C(=O)N[C@@H]1C(=O)N2C(C(=O)O)=C(COC(N)=O)CS[C@H]12)c1ccco1 [Cefuroxime] + CC(=O)NC[C@H]1CN(c2ccc(N3CCOCC3)c(F)c2)C(=O)O1 [Linezolid]
fitness, B. subtilis 168 [1]
Settings | first compound 0.04875 µg/mL | first compound 0.0975 µg/mL | first compound 0.195 µg/mL
partner 0.125 µg/mL | 0.532 | 0.526 | 0.423
partner 0.25 µg/mL | 0.293 | 0.261 | 0.0774
partner 0.5 µg/mL | 0.103 | 0.0891 | 0.0749

fitness, B. subtilis 168 [1], one replicate
Settings | first compound 0.195 µg/mL | first compound 0.39 µg/mL | first compound 0.78 µg/mL | first compound 1.562 µg/mL | first compound 3.125 µg/mL | first compound 6.25 µg/mL
partner 0.0625 µg/mL | 0.379 | 0.312 | 0.235 | – | – | –
partner 0.125 µg/mL | – | 0.227 | 0.14 | 0.331 | 0.384 | 0.308
partner 0.25 µg/mL | – | 0.0397 | 0.0222 | 0.0445 | 0.0527 | 0.0345
partner 0.5 µg/mL | – | – | – | 0.0242 | 0.0246 | 0.0074

Settings | Bliss interaction score
B. subtilis 168 [2] | 0.139
S. aureus DSM 20231 | -0.208
S. aureus Newman | 0.0749
S. pneumoniae D39V | 0.079

CO/N=C(\C(=O)N[C@@H]1C(=O)N2C(C(=O)O)=C(COC(N)=O)CS[C@H]12)c1ccco1 [Cefuroxime] + CCC(C)C1C(=O)NC(=C)C(=O)NC(C(=O)NC(CSCC(C(=O)N1)NC(=O)/C(=C/C)/NC(=O)C(C(C)CC)N)C(=O)NC2C(SCC(NC(=O)CNC(=O)C3CCCN3C2=O)C(=O)NC(CCCCN)C(=O)NC4C(SCC(NC(=O)CNC(=O)C(NC(=O)C(NC(=O)C(NC(=O)CNC4=O)C)CC(C)C)CCSC)C(=O)NC(CC(=O)N)C(=O)NC(CCSC)C(=O)NC(CCCCN)C(=O)NC5C(SCC6C(=O)NC(C(=O)NC(CSC(C(C(=O)N6)NC(=O)C(NC5=O)C)C)C(=O)NC(CO)C(=O)NC(C(C)CC)C(=O)NC(CC7=CN=CN7)C(=O)NC(C(C)C)C(=O)NC(=C)C(=O)NC(CCCCN)C(=O)O)CC8=CN=CN8)C)C)C)CC(C)C [Nisin]
B. subtilis 168 [1], one replicate, main component drawn
Settings | fitness
first compound 0.04875 µg/mL, partner 0.5 µg/mL | 0.608
first compound 0.04875 µg/mL, partner 1 µg/mL | 0.529
first compound 0.04875 µg/mL, partner 2 µg/mL | 0.417
first compound 0.04875 µg/mL, partner 4 µg/mL | 0.0351
first compound 0.04875 µg/mL, partner 8 µg/mL | 0.0258
first compound 0.04875 µg/mL, partner 16 µg/mL | 0.0482
first compound 0.0975 µg/mL, partner 0.5 µg/mL | 0.471
first compound 0.0975 µg/mL, partner 1 µg/mL | 0.427
first compound 0.0975 µg/mL, partner 2 µg/mL | 0.261
first compound 0.0975 µg/mL, partner 4 µg/mL | 0.032
first compound 0.0975 µg/mL, partner 8 µg/mL | 0.0195
first compound 0.0975 µg/mL, partner 16 µg/mL | 0.02
first compound 0.195 µg/mL, partner 0.5 µg/mL | 0.385
first compound 0.195 µg/mL, partner 1 µg/mL | 0.382
first compound 0.195 µg/mL, partner 1.25 µg/mL | 0.173
first compound 0.195 µg/mL, partner 1.6 µg/mL | 0.0755
first compound 0.195 µg/mL, partner 2 µg/mL | 0.278
first compound 0.195 µg/mL, partner 2.5 µg/mL | 0.0381
first compound 0.195 µg/mL, partner 3.2 µg/mL | 0.0377
first compound 0.195 µg/mL, partner 4 µg/mL | 0.0274
first compound 0.195 µg/mL, partner 5 µg/mL | 0.0619
first compound 0.195 µg/mL, partner 6.4 µg/mL | 0.0264
first compound 0.195 µg/mL, partner 8 µg/mL | 0.0204
first compound 0.195 µg/mL, partner 16 µg/mL | 0.0103
first compound 0.39 µg/mL, partner 1.25 µg/mL | 0.086
first compound 0.39 µg/mL, partner 1.6 µg/mL | 0.0435
first compound 0.39 µg/mL, partner 2.5 µg/mL | 0.0309
first compound 0.39 µg/mL, partner 3.2 µg/mL | 0.0108
first compound 0.39 µg/mL, partner 5 µg/mL | 0.0219
first compound 0.39 µg/mL, partner 6.4 µg/mL | 0.0352
first compound 0.78 µg/mL, partner 1.25 µg/mL | 0.0678
first compound 0.78 µg/mL, partner 1.6 µg/mL | 0.0281
first compound 0.78 µg/mL, partner 2.5 µg/mL | 0.0242
first compound 0.78 µg/mL, partner 3.2 µg/mL | 0.0058
first compound 0.78 µg/mL, partner 5 µg/mL | 0.0235
first compound 0.78 µg/mL, partner 6.4 µg/mL | 0.0238
first compound 1.562 µg/mL, partner 0.5 µg/mL | 0.257
first compound 1.562 µg/mL, partner 1 µg/mL | 0.0875
first compound 1.562 µg/mL, partner 2 µg/mL | 0.038
first compound 3.125 µg/mL, partner 0.5 µg/mL | 0.173
first compound 3.125 µg/mL, partner 1 µg/mL | 0.0836
first compound 3.125 µg/mL, partner 2 µg/mL | 0.02
first compound 6.25 µg/mL, partner 0.5 µg/mL | 0.105
first compound 6.25 µg/mL, partner 1 µg/mL | 0.0185
first compound 6.25 µg/mL, partner 2 µg/mL | 0.0198

main component drawn
Settings | Bliss interaction score
B. subtilis 168 [2] | -0.0638
S. aureus DSM 20231 | -0.109
S. aureus Newman | -0.331
S. pneumoniae D39V | 0.0468
